Measured values reported in US11596622B2, “Mazindol treatment for heroin dependence and substance use disorder” (NLS Pharmaceutics AG, priority 2017, dated 2023).

Key:
[1] = tested on: C57BL/6J mice; test: Effect of treatment on the conditioned place preference induced by heroin; format: in vivo; details: for Distance travelled in the drug-paired compartment / Distance travelled in the two compartments (Drug + Vehicle) / Distance travelled in the vehicle-paired compartment / Distance travelled, drug-paired minus vehicle-paired compartment / Time spent in the drug-paired compartment / Time spent in the vehicle-paired compartment / Time spent, drug-paired minus vehicle-paired compartment: mean
Excerpt: Conditioned place preference (CPP) is a widely used procedure for studying the potential addictive effect of drugs. CPP is based upon the tendency of rodents to approach a stimulus that has previously been paired with an incentive state induced by a drug. A drug that induces a CPP may be suspected to present reinforcing effects that could lead to addiction. Numerous addictive drugs, such as opiate agonists or stimulants induce a CPP and a behavioral sensitization.
The effect of mazindol on place preference was examined in C57BL/6J mice using a method similar to the one used by Schlussman et al. (9).
The third experiments consisted in examining the effects of mazindol and D-amphetamine (at doses chosen from results of the first part of the study) on the place preference induced by heroin at a dose chosen from results of the second experiment, which was 1.25 mg/kg. Mazindol (0.125, 0.25 and 0.5 mg/kg) and D-amphetamine (0.5 mg/kg) were tested.
Therefore, it was decided to perform an additional experiment to examine the effects on place preference induced by heroin of mazindol at 1 and 2 mg/kg and of D-amphetamine at 1 mg/kg.
Following the habituation session (on day 1), animals (N=72) were pseudo-randomly assigned to two groups, a Control group (N=12) and a Heroin group (N=60), in a way that there was no significant difference between the two groups for the total distance travelled in the apparatus and for the percentage of time spent and the percentage distance travelled in the grey compartment and in the striped compartment.
Animals received the following treatments immediately before drug sessions: • Control group: vehicle • Heroin group: heroin (1.25 mg/kg)
Following the last conditioning session, the Heroin group was pseudo-randomly divided into 5 groups (N=12/group) in a way that there was no significant difference between groups for the total distance travelled in the apparatus and for the percentage of time spent and the percentage distance travelled in the grey compartment and in the striped compartment in habituation session, for the distance travelled in the drug-paired and in the vehicle-paired compartments in conditioning sessions and for the proportion of striped drug-paired compartments.
Animals received the following treatments before preference session: • Control group: vehicle of mazindol, i.p. 60 min before testing. • Hero group: vehicle of mazindol, i.p. 60 min before testing. • Hero-A 0.5 group: D-amphetamine (0.5 mg/kg), i.p. 30 min before testing. • Hero-Mz 0.125 group: mazindol (0.125 mg/kg), i.p. 60 min before testing. • Hero-Mz 0.25 group: mazindol (0.25 mg/kg), i.p. 60 min before testing. • Hero-Mz 0.5 group: mazindol (0.5 mg/kg), i.p. 60 min before testing.
Following the habituation session (on day 1), animals (N=72) were pseudo-randomly assigned to three groups, a Control group (N=12), a Heroin group (N=48) and a Mazindol group (N=12), in a way that there was no significant difference between the three groups for the total distance travelled in the apparatus and for the percentage of time spent and the percentage distance travelled in the grey compartment and in the striped compartment.
Animals received the following treatments before drug sessions: • Control group: vehicle, i.p. immediately before session. • Heroin group: heroin (1.25 mg/kg), i.p. immediately before session. • MAZ 2 group: mazindol (2 mg/kg), i.p. 60 min before session.
Following the last conditioning session, the Heroin group was pseudo-randomly divided into 4 groups (N=12/group) in a way that there is no significant difference between groups for the total distance travelled in the apparatus and for the percentage of time spent and the percentage distance travelled in the grey compartment and in the striped compartment in habituation session, for the distance travelled in the drug-paired and in the vehicle-paired compartments in conditioning sessions and for the proportion of striped drug-paired compartments. […]

[2] = tested on: Sprague-Dawley rats; test: Naloxone precipitated withdrawal syndrome of heroin; format: in vivo
Protocol: The abrupt cessation of chronic opiate use results in a well characterized withdrawal syndrome with symptoms that include pain sensitivity, dysphoria, irritability, restlessness, insomnia, diarrhea and hyperventilation. In the present model, the naloxone-precipitated withdrawal syndrome is measured in rodents. Animals are chronically treated with a drug, e.g. morphine or heroin. Opiate withdrawal syndrome is elicited by an acute injection of the opiate antagonist Naloxone.
The effect of mazindol on heroin withdrawal syndrome elicited by naloxone was examined in Sprague-Dawley rats using a method similar to the one used by Jiang et al. (10),
Animals were subdivided into two groups. One group received heroin two i.p. injections/day for 12 consecutive days and a single injection on the 13th day (total: 25 injections) as exposed in Table 3 group received saline instead of heroin following the same protocol.
On day 13, animals received treatments and were tested according to the following time schedule: • T=0: i.p. injection of heroin (15 mg/kg) or vehicle. • T=2.5 h: animals individually placed in a transparent Plexiglas observation boxes (40×40×40 cm). • T=3.5 h: i.p. injection of treatment (see below). • T=4 h: i.p. injection of naloxone (5 mg/kg), start of test: observation of withdrawal symptoms as indicated in Table 4. • T=5 h: end of test, animals placed back into their home cages.
Animals received the following treatments at T 3.5 h (i.e. 30 min before injection of naloxone and observation of symptoms): • 1) Animals treated with saline during the intoxication period (days 1-12) and at T0 on day 13: • Saline group (N=8): saline (0.9% NaCl). • 2) Animals treated with […] during the intoxication period (days 1-12) and at T0 on day 13: • Hero group (N=14): saline (0.9% NaCl). • Amph 1 group (N=4): D-amphetamine (1 mg/kg). • Maz 0.125 group (N=5): mazindol (0.125 mg/kg). • Maz 0.25 group (N=6): mazindol (0.25 mg/kg). • Maz 0.5 group (N=6): mazindol (0.5 mg/kg). • Maz 1 group (N=6): mazindol (1 mg/kg). • Maz 2 group (N=5): mazindol (2 mg/kg).
A weighting factor was ascribed for each sign from which a score was calculated.
Examples: • Body weight before naloxone injection=241 g; after naloxone injection=236 g: • Weight loss score=2=100×(241−236)/241 • Number of escape attempts=8: • Score for escape attempts=2 • Profuse salivation present: • Score for profuse salivation
A global withdrawal score was then calculated: • Global score=the sum of the scores

[3] = Hero-A 0.5: heroin 1.25 mg/kg conditioning, D-amphetamine 0.5 mg/kg i.p. 30 min before preference session
[4] = Hero-A 1: heroin 1.25 mg/kg conditioning, D-amphetamine 1 mg/kg i.p. 30 min before preference session
[5] = Amph 1: heroin-treated rats, D-amphetamine 1 mg/kg i.p. 30 min before naloxone 5 mg/kg, mean

## C[C@H](N)Cc1ccccc1.C[C@H](N)Cc1ccccc1.O=S(=O)(O)O [D-amphetamine, D-amphetamine sulfate]
[1]; D-amphetamine 0.5 mg/kg
  effect on the heroin-induced increase of distance travelled in the drug-paired compartment: had no effect
  effect on the heroin-induced increase of time spent in the drug-paired compartment: non-significantly reduced
[1]; D-amphetamine 1 mg/kg
  effect on the heroin-induced increases of time spent and distance travelled in the drug-paired compartment: did not modify
[1]; D-amphetamine 0.5, 1 mg/kg i.p. before preference session
  effect on the place preference induced by heroin: do not show a reliable effect
[1]; D-amphetamine 0.5 and 1 mg/kg i.p. before preference session
  total distance travelled in two compartments (FIG. 3): at 0.5 mg/kg, but not at 1 mg/kg decreased the total distance travelled in two compartments
[1]; [3]
  Distance travelled in the drug-paired compartment: 6797.2 cm
  Distance travelled in the two compartments (Drug + Vehicle): 11379.9 cm
  Distance travelled in the vehicle-paired compartment: 4582.7 cm
  Distance travelled, drug-paired minus vehicle-paired compartment: 2214.6 cm
  Time spent in the drug-paired compartment: 984.5 s
  Time spent in the vehicle-paired compartment: 815.5 s
  Time spent, drug-paired minus vehicle-paired compartment: 168.9 s
[1]; [4]
  Distance travelled in the drug-paired compartment: 7416.7 cm
  Distance travelled in the two compartments (Drug + Vehicle): 13005.6 cm
  Distance travelled in the vehicle-paired compartment: 5588.9 cm
  Distance travelled, drug-paired minus vehicle-paired compartment: 1827.8 cm
  Time spent in the drug-paired compartment: 1048.3 s
  Time spent in the vehicle-paired compartment: 751.7 s
  Time spent, drug-paired minus vehicle-paired compartment: 296.5 s
[2]; [5]
  Abdominal constrictions score (Abd C): 0.0
  Abnormal posture score (Ab P): 0.0
  Chromodacryorrhea score (Chr): 5.0
  Diarrhea score (Diarr): 2.0
  Erection or ejaculation score (Er Ej): 0.0
  Escape attempts score (Esc A): 1.8
  Facial fasciculation or teeth chattering score (F F T C): 2.0
  Global Score: 22.5
  Irritability score (Irrit): 0.0
  Profuse salivation score (Pr Sal): 5.3
  Ptosis score (Ptos): 0.0
  Swallowing movements score (Sw M): 1.0
  Weight loss score (W Los): 2.0
  Wet dog shakes score (W D S): 3.5
[2]; D-amphetamine 1 mg/kg
  effect on naloxone precipitated withdrawal symptoms of heroin: did not reduce the withdrawal symptoms of heroin
[2]; D-amphetamine 1 mg/kg, increase not significant
  effect on chromodacryorrhea: tended to increase
